In patent publication US11780845B2 (Relay Therapeutics, Inc., priority 2019, dated 2023) one finds IC50 data, which are given here for 48 molecules.

Some results are limits rather than exact numbers.

In one test the target is FGFR2 (Homo sapiens (Human), UniProt P21802). Kind of test: FGFR2 Biochemical Caliper Assay. Here is the method:
Compounds of the present invention were also tested in a FGFR2 Biochemical Caliper Assay. Compounds were prepared in 10 mM DMSO solution and serially diluted into 11 concentrations by 3-fold dilution. […] 5 uL of ATP solution (100 uM) was added to start the reaction and the plate was incubated for 90 minutes, then 70 uL of stopping buffer (0.5M EDTA) was added to terminate the reaction. Each well was analyzed using EZ reader.

In the next test the test system is SNU16 cells. As to the kind of experiment: SNU16 Cancer Cell Line Proliferation Assay. Conditions: Homo sapiens; SNU-16 cells. The class given is cell-based. The gist of the method:
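SNU16 cells were seeded, held 24 h at 37 degrees, then dosed with an 11-point 3-fold dilution series prepared from a 10 mM DMSO stock. After 96 h incubation, viability was read by CellTiter Glo luminescence.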

Sequence of FGFR2 (P21802 22-821): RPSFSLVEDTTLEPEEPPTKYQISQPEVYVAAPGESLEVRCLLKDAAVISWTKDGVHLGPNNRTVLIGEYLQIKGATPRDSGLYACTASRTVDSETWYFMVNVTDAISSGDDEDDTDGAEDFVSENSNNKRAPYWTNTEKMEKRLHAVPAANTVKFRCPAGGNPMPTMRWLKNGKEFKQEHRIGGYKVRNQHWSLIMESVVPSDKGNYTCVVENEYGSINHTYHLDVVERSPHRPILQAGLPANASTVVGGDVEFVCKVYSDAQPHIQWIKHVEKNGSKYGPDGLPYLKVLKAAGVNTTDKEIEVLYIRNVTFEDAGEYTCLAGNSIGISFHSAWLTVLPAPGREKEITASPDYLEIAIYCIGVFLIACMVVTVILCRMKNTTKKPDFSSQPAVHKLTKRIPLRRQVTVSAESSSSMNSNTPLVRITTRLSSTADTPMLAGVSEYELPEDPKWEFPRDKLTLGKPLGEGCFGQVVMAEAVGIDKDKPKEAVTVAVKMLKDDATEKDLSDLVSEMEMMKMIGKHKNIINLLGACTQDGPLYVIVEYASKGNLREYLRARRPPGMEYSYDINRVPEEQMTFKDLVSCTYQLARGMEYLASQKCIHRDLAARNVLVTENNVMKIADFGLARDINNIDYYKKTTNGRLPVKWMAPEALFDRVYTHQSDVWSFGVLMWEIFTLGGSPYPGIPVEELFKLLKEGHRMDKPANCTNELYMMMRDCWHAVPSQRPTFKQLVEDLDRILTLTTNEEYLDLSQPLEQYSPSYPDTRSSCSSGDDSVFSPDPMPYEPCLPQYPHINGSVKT

Take `C=C(C)C(=O)Nc1ccc(-c2c(-c3ccc(C(=O)N4CCC5CC54)cc3)c3c(N)ncnc3n2C)cc1` (stereo not drawn) [Example 229]: the IC50 against FGFR2 is less than 100 nM; with SNU16 cells, no more than 100 nM.
In the case of `C=C(C)C(=O)Nc1ccc(-c2c(-c3ccc(C(=O)N4CCCC[C@H]4C)cc3)c3c(N)ncnc3n2C)c(F)c1` [Example 462], the IC50 at FGFR2 is less than 100 nM; in the test with SNU16 cells it was no more than 100 nM.
For the molecule `C=C(C)C(=O)Nc1ccc(-c2c(-c3ccc(Oc4ncc(F)c(C)n4)c(F)c3)c3c(N)ncnc3n2C)cc1` [Example 515], the values for the IC50 at FGFR2 and with SNU16 cells were less than 100 nM and no more than 100 nM, respectively.
Regarding `C=C(C)C(=O)Nc1ccc(-c2c(-c3ccc(Oc4nccc(C)n4)c(F)c3)c3c(N)ncnc3n2C)c(CO)c1` [Example 513], the IC50 against FGFR2 was less than 100 nM; in the test with SNU16 cells, no more than 100 nM.
As for `C=CC(=O)N1CC[C@@H](c2c(-c3ccc(Oc4ncccn4)cc3)c3c(N)ncnc3n2CCN2CCOCC2)C1` [Example 740], the IC50 at FGFR2 and with SNU16 cells was 1000 to 100000 nM throughout.
In the case of `C=CC(=O)N1CCC(n2cc(-c3c(-c4ccc(Oc5ccccn5)c(OC)c4)c4c(N)ncnc4n3C)cn2)CC1` [Example 669], the IC50 on FGFR2 and with SNU16 cells was 250 to 1000 nM throughout.
On to `C=CC(=O)N1CCC(n2cc(-c3c(-c4ccc(Oc5ccccn5)cc4)c4c(N)ncnc4n3C)cn2)CC1` [Example 638], for which the IC50 on FGFR2 was less than 100 nM; in the test with SNU16 cells, no more than 100 nM.
In the case of `C=C(C)C(=O)Nc1ccc(-c2c(C3=CC[C@H](C(=O)N4CCCC4)CC3)c3c(N)ncnc3n2C)cc1` (single isomer, unassigned) [Example 398], the values for the IC50 against FGFR2 and in the test on SNU16 cells were less than 100 nM and no more than 100 nM, respectively.
`Cn1c(-c2ccc(NC(=O)C3=CCC3)cc2)c(-c2ccc(C(=O)N3CCCC3)cc2)c2c(N)ncnc21` [Example 512]: the IC50 on FGFR2 is less than 100 nM; with SNU16 cells, no more than 100 nM.
`C=C(C)C(=O)Nc1ccc(-c2c(-c3ccc(C(=O)NC4(COC)CCC4)cc3)c3c(N)ncnc3n2C)cc1` [Example 365]: the IC50 against FGFR2 was less than 100 nM; in the test with SNU16 cells it was no more than 100 nM.
Consider `C=CC(=O)N1CCC(c2c(-c3ccc(C(=O)N4CCC(F)(F)C4)cc3)c3c(N)ncnc3n2C)C1` (stereo not drawn) [Example 718], for which the IC50 against FGFR2 and in the test on SNU16 cells was 250 to 1000 nM each time.
For `C=C(C)C(=O)Nc1ccc(-c2c(-c3ccc(C(=O)NCC(F)F)cc3)c3c(N)ncnc3n2C)cc1` [Example 305], the figures for the IC50 against FGFR2 and in the test on SNU16 cells were less than 100 nM and no more than 100 nM, respectively.
Take `C=C(C)C(=O)Nc1ccc(-c2c(-c3ccc(Oc4ccc(F)cn4)c(F)c3)c3c(N)ncnc3n2C)cc1` [Example 114]: the concentration for half-maximal inhibition (IC50) on FGFR2 was 250 to 1000 nM; in the test with SNU16 cells, 100 to 250 nM.
For `C=C(C)C(=O)Nc1ccc(-c2c(-c3ccc(C(=O)N4CCC(O)C4)cc3)c3c(N)ncnc3n2C)cc1` (stereo not drawn) [Example 157], the IC50 against FGFR2 and in the test on SNU16 cells was 250 to 1000 nM in each case.
On to `C=C(C)C(=O)Nc1ccc(-c2c(C3=CC[C@@H](C(=O)N4CCC[C@H]4C#N)CC3)c3c(N)ncnc3n2C)cc1` (single isomer, unassigned) [Example 582], for which the IC50 at FGFR2 was less than 100 nM; in the test on SNU16 cells it was no more than 100 nM.
For `C=CC(=O)N1CCC(c2c(-c3cnn(C4CNC4)c3)c3c(N)ncnc3n2C)C1` (stereo not drawn) [Example 793], the IC50 against FGFR2 lay within 250 to 1000 nM; with SNU16 cells, 1000 to 100000 nM.
Consider `C=C(C)C(=O)Nc1ccc(-c2c(-c3cc(F)c(Oc4ncccn4)c(F)c3)c3c(N)ncnc3n2C)cc1` [Example 110], for which the half-inhibitory concentration (IC50) at FGFR2 is less than 100 nM; with SNU16 cells it was no more than 100 nM.
The corresponding values for `C=CC(=O)N1CCC(n2cc(-c3c(-c4ccc(Oc5cccc(F)n5)cc4)c4c(N)ncnc4n3C)cn2)CC1` [Example 634] are less than 100 nM and no more than 100 nM.
Turning to `C=CC(=O)N1CCCC(n2cc(-c3c(-c4ccc(Oc5cccc(C)n5)cc4)c4c(N)ncnc4n3C)cn2)C1` (stereo not drawn) [Example 629], the IC50 was less than 100 nM at FGFR2 and no more than 100 nM in the test on SNU16 cells.
For `C=CC(=O)N1CCC(c2c(-c3ccc(CN4CC[C@@H](O)C4)cc3)c3c(N)ncnc3n2C)C1` (stereo partly drawn) [Example 724], the half-maximal inhibitory concentration (IC50) at FGFR2 and with SNU16 cells was 1000 to 100000 nM in each case.
For `C=CC(=O)N1CCC(c2c(-c3ccc(Oc4ccc(Cl)c(C)n4)cc3)c3c(N)ncnc3n2C)C1` (stereo not drawn) [Example 745], the IC50 against FGFR2 and in the test on SNU16 cells was 1000 to 100000 nM each time.
Regarding `C=CC(=O)Nc1ccc(-c2c(-c3ccc(Oc4ccccn4)c(OC)c3)c3c(N)ncnc3n2C)cc1` [Example 5], the IC50 was less than 100 nM on FGFR2 and no more than 100 nM in the test on SNU16 cells.
The corresponding values for `C=CC(=O)N1CCC(c2c(-c3ccccc3)c3c(N)ncnc3n2C)C1` (stereo not drawn) [Example 700] are 1000 to 100000 nM and 250 to 1000 nM.
Turning to `C=C(C)C(=O)Nc1ccc(-c2c(-c3ccc(Oc4cccc(C)n4)cc3F)c3c(N)ncnc3n2C)cc1` [Example 442], the IC50 against FGFR2 is less than 100 nM; with SNU16 cells, no more than 100 nM.
In the case of `C=C(C)C(=O)Nc1ccc(-c2c(-c3ccc(C(=O)N4CCCC4)cc3)c3c(N)ncnc3n2C)c(C)c1` [Example 406], the IC50 is less than 100 nM on FGFR2 and no more than 100 nM in the test on SNU16 cells.
For `C=CC(=O)N1CCC(c2c(-c3ccc(OC4CCC4)cc3)c3c(N)ncnc3n2C)C1` (stereo not drawn) [Example 758] the same measures were less than 100 nM and no more than 100 nM.
`C=CC(=O)N1CC[C@H](c2c(-c3ccc(Oc4ncccn4)cc3)c3c(N)ncnc3n2C)C1` (single isomer, unassigned) [Example 698]: the figures for the IC50 against FGFR2 and in the test with SNU16 cells were 250 to 1000 nM and 100 to 250 nM, respectively.
In the case of `C=C(C)C(=O)Nc1ccc(-c2c(-c3ccc(S(=O)(=O)CCC(F)(F)F)cc3)c3c(N)ncnc3n2C)cc1` [Example 315], the IC50 on FGFR2 and in the test on SNU16 cells was 250 to 1000 nM in each case.
With `C/C=C/C(=O)N1CCC(n2cc(-c3c(-c4ccc(Oc5cccc(C)n5)cc4)c4c(N)ncnc4n3C)cn2)CC1` [Example 649], the IC50 lay within 100 to 250 nM against FGFR2 and 250 to 1000 nM in the test with SNU16 cells.
As to `C=CC(=O)Nc1ccc(-c2c(-c3ccc(Oc4cccc(C)n4)cc3)c3c(N)ncnc3n2C)cc1OC` [Example 14], the half-maximal inhibitory concentration (IC50) was less than 100 nM at FGFR2 and no more than 100 nM in the test on SNU16 cells.
As for `C=C(C)C(=O)Nc1ccc(-c2c(-c3ccc(C(=O)NCC4CC4)cc3)c3c(N)ncnc3n2C)cc1` [Example 320], the IC50 was less than 100 nM at FGFR2 and no more than 100 nM in the test on SNU16 cells.
As for `C=CC(=O)N1CC[C@@H](c2c(-c3ccc(Oc4ncccn4)cc3)c3c(N)ncnc3n2CC)C1` (single isomer, unassigned) [Example 708], the IC50 against FGFR2 is less than 100 nM; in the test on SNU16 cells, no more than 100 nM.
Regarding `C=CC(=O)N1CCC(c2c(-c3ccc(Oc4ccc(C(F)(F)F)cn4)cc3)c3c(N)ncnc3n2C)C1` (stereo not drawn) [Example 759], the 50% inhibitory concentration (IC50) against FGFR2 and in the test on SNU16 cells was 250 to 1000 nM each time.
`C=C(C)C(=O)Nc1ccc(-c2c(-c3ccc(Oc4nccc(C)n4)c(F)c3)c3c(N)ncnc3n2CC)cc1` [Example 494]: the IC50 against FGFR2 was less than 100 nM; in the test with SNU16 cells, no more than 100 nM.
For `C=CC(=O)N1CCC(n2cc(-c3c(-c4ccc(Oc5ccccn5)c(OC)c4)c4c(N)ncnc4n3C)cn2)CC1C` (stereo not drawn) [Example 664], the IC50 against FGFR2 and in the test with SNU16 cells was 100 to 250 nM each time.
Take `C=C(C)C(=O)N1CCC(n2cc(-c3c(-c4ccc(Oc5ccccc5)cc4)c4c(N)ncnc4n3C)cn2)CC1` [Example 652]: the IC50 against FGFR2 was 100 to 250 nM; in the test on SNU16 cells, 1000 to 100000 nM.
For `C=CC(=O)Nc1ccc(-c2c(-c3ccc(Oc4ccn(C)n4)c(OC)c3)c3c(N)ncnc3n2C)cc1` [Example 145], the results for the concentration for half-maximal inhibition (IC50) against FGFR2 and with SNU16 cells were less than 100 nM and no more than 100 nM, respectively.
For `C=C(C)C(=O)Nc1ccc(-c2c(-c3ccc(C(=O)N4CC5CCC5C4)cc3)c3c(N)ncnc3n2C)cc1` (stereo not drawn) [Example 291] the same measures were less than 100 nM and no more than 100 nM.
Regarding `C=CC(=O)N1CCC(c2c(-c3ccn(Cc4ccccc4)c(=O)c3)c3c(N)ncnc3n2C)C1` (stereo not drawn) [Example 792], the IC50 on FGFR2 and in the test with SNU16 cells was 100 to 250 nM throughout.
For `C=CC(=O)N1CCC(c2c(-c3ccc(Oc4ncccn4)cc3)c3c(N)ncnc3n2CCN(C)C)C1` (stereo not drawn) [Example 707], the IC50 against FGFR2 and in the test on SNU16 cells was 1000 to 100000 nM throughout.
On to `C=C(C)C(=O)Nc1ccc(-c2c(-c3ccc(C(=O)NC4C5COCC54)cc3)c3c(N)ncnc3n2C)cc1` (stereo not drawn) [Example 352], for which the IC50 against FGFR2 and in the test with SNU16 cells was 250 to 1000 nM in each case.
Regarding `C=C(C)C(=O)Nc1ccc(-c2c(-c3ccc(Oc4nnc(C)o4)cc3)c3c(N)ncnc3n2C)cc1` [Example 393], the half-maximal inhibitory concentration (IC50) against FGFR2 is 1000 to 100000 nM; with SNU16 cells it was 250 to 1000 nM.
For the molecule `C=CC(=O)N1CCC(c2c(-c3ccc(Oc4cccc(C)n4)c(OC)c3)c3c(N)ncnc3n2C)CC1` [Example 619], the IC50 on FGFR2 and in the test on SNU16 cells was 100 to 250 nM in each case.
Regarding `C=C(C)C(=O)Nc1ccc(-c2c(-c3ccc(C(=O)N4CCC[C@H](OC)C4)cc3)c3c(N)ncnc3n2C)cc1` [Example 353], the IC50 on FGFR2 fell in the range of 1000 to 100000 nM; in the test on SNU16 cells it was 250 to 1000 nM.
Consider `C=C(C)C(=O)Nc1ccc(-c2c(-c3ccc(C(=O)NCC(C)(C)F)cc3)c3c(N)ncnc3n2C)cc1` [Example 408], for which the half-maximal inhibitory concentration (IC50) is less than 100 nM against FGFR2 and no more than 100 nM with SNU16 cells.
The corresponding values for `C=CC(=O)N1CCC(c2c(-c3ccc(Oc4ncccn4)cc3)c3c(N)ncnc3n2C2CCOCC2)C1` (stereo not drawn) [Example 704] are 250 to 1000 nM and 100 to 250 nM.
For the molecule `C=C(C)C(=O)Nc1ccc(-c2c(-c3ccc(Oc4cccc(C)n4)cc3)c3c(N)ncnc3n2C2CC(O)C2)cc1` (stereo not drawn) [Example 90], the values for the IC50 on FGFR2 and with SNU16 cells were less than 100 nM and no more than 100 nM, respectively.
On to `C=CC(=O)N1CCC(n2cc(-c3c(-c4ccc(Oc5ccc(C)cn5)cc4)c4c(N)ncnc4n3C)cn2)CC1` [Example 636], for which the IC50 against FGFR2 was 100 to 250 nM; in the test on SNU16 cells, no more than 100 nM.
